The results in this text go back to article PMC4810412, “Identification of a Fragment-Based Scaffold that Inhibits the Glycosyltransferase WaaG from Escherichia coli” (Antibiotics, 2016).

The structures appear in SMILES notation. pIC50: −log10 of the molar value.

The term pIC50 denotes the negative decadic logarithm of the IC50, by convention in mol/L. Higher therefore signals a small IC50.

The assay deals with WaaG (α-1,3-glucosyltransferase I) (Escherichia coli, UniProt P25740). The assay is described as follows: […]-glucose transfer from UDP-Glc to truncated LPS, SDS-PAGE autoradiography, dose-response. The format is biochemical.
WaaG (α-1,3-glucosyltransferase I), sequence (P25740 whole entry, the tested form may be a part): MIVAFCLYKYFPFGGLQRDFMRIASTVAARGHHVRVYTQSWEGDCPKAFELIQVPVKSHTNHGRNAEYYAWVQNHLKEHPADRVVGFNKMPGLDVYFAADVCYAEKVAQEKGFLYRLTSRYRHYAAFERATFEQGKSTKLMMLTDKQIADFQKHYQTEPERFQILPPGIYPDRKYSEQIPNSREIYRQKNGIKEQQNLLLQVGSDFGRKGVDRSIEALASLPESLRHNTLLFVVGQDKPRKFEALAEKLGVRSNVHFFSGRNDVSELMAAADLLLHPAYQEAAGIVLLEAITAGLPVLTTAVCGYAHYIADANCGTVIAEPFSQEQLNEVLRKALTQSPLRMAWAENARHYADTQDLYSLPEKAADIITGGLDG

For `Nc1nc(-c2ccc(O)cc2)cs1` [L1, 4-(2-amino-1,3-thiazol-4-yl)phenol], the pIC50 is 3.00.
